Read-outs that look alike come from different tables or passages of the source.
Experiments:
Assay type in all cases: cell-based
Fusarium graminearum [1] = tested on: Fusarium graminearum
Septoria tritici = tested on: Septoria tritici
Mycosphaerella fijiensis = tested on: Mycosphaerella fijiensis
Fusarium graminearum [2] = tested on: Fusarium graminearum
[3] = Measurement taken at 72 hours after inoculation, fold improvement compared to DmAMP1
[4] = Measurement taken at 144 hours after inoculation, fold improvement compared to DmAMP1
[5] = Table 2C (mixed diversity library), improvement compared to reference defensin protein DmAMP
[6] = Table 2B (Dm-AMP1 based libraries), improvement compared to reference defensin protein (Rs-AFP2 for Table 2B [sic])

Row | Sequence | Antifungal activity, Fusarium graminearum (improvement compared to DmAMP1) (Fusarium graminearum [1]; [3]) | Antifungal activity, Septoria tritici (improvement compared to DmAMP1) (Septoria tritici; [4]) | Antifungal activity, Mycosphaerella fijiensis (improvement compared to DmAMP1) (Mycosphaerella fijiensis; [4]) | Activity (1): antifungal activity of the NP against Fusarium graminearium (Fusarium graminearum [2]; [5]) | Activity (1): antifungal activity of the NP against Fusarium graminearium (Fusarium graminearum [2]; [6]) | Antifungal activity, Fusarium graminearum (improvement compared to DmAMP1) (Fusarium graminearum [1]) | Antifungal activity, Septoria tritici (improvement compared to DmAMP1) (Septoria tritici) | Antifungal activity, Mycosphaerella fijiensis (improvement compared to DmAMP1) (Mycosphaerella fijiensis)
1 | DGVKLCERPSQTWSGHCGNTKHCDKQCRNWEGAKHGACHVRNGKWKCFCYFNC (Defensin like) [L7-87] | +++ (+++ indicating >10-fold improvement) | ++ (++ indicating >5- to 10-fold improvement) | + (+ indicating 1- to 5-fold improvement compared to DmAMP1) | +++ (+++ indicates a >10-fold improvement) | – | – | – | –
2 | DGVKLCERASKTWTGNCGNTKHCDKQCKNWEGAKHGACHVRNGKWKCFCYFNC (Defensin like) [L7-449] | +++ (+++ indicating >10-fold improvement) | ++ (++ indicating >5- to 10-fold improvement) | + (+ indicating 1- to 5-fold improvement compared to DmAMP1) | ++ (++ indicates a >5- to 10-fold improvement) | – | – | – | –
3 | DGVKLCERASQTWSGHCGNTKHCDNQCKSWEKAKHGACHVRSGKHKCFCYFNC (Defensin like) [L7-58] | + (+ indicating 1- to 5-fold improvement compared to DmAMP1) | + (+ indicating 1- to 5-fold improvement compared to DmAMP1) | + (+ indicating 1- to 5-fold improvement compared to DmAMP1) | +++ (+++ indicates a >10-fold improvement) | – | – | – | –
4 | NLCERASKTWTGNCGNTKHCDNQCRNWEGAKHGACHKRSGKWKCFCYFNC (Defensin like) [L9-15] | ++ (++ indicating >5- to 10-fold improvement) | ++ (++ indicating >5- to 10-fold improvement) | + (+ indicating 1- to 5-fold improvement compared to DmAMP1) | – | +++ (+++ indicates a >10-fold improvement) | – | – | –
5 | DGVKLCERASQTWTGHCGNTKHCDKQCKNWEGAKHGACHKRNGKWKCFCYFNC (Defensin like) [L7-432] | +++ (+++ indicating >10-fold improvement) | + (+ indicating 1- to 5-fold improvement compared to DmAMP1) | +++ (+++ indicating >10-fold improvement) | +++ (+++ indicates a >10-fold improvement) | – | – | – | –
6 | NLCERASKTWTGNCGNTKHCDNQCRSWEGAKHGACHVRNGKHKCFCYFNC (Defensin like) [L6-75] | +++ (+++ indicating >10-fold improvement) | +++ (+++ indicating >10-fold improvement) | + (+ indicating 1- to 5-fold improvement compared to DmAMP1) | – | ++ (++ indicates a >5- to 10-fold improvement) | – | – | –
7 | DGVKLCERPSQTWTGNCGNTKHCDKQCKNWEKAKHGACHVRNGKWKCFCYFNC (Defensin like) [L7-457] | + (+ indicating 1- to 5-fold improvement compared to DmAMP1) | + (+ indicating 1- to 5-fold improvement compared to DmAMP1) | + (+ indicating 1- to 5-fold improvement compared to DmAMP1) | +++ (+++ indicates a >10-fold improvement) | – | – | – | –
8 | NLCERASKTWTGNCGNTKHCDNQCKNWEGAKHGACHVRNGKWKCFCYFNC [L6-41] (Defensin like) | + (+ indicating 1- to 5-fold improvement compared to DmAMP1) | + (+ indicating 1- to 5-fold improvement compared to DmAMP1) | + (+ indicating 1- to 5-fold improvement compared to DmAMP1) | – | +++ (+++ indicates a >10-fold improvement) | – | – | –
9 | NLCERASKTWTGNCGNTKHCDNQCKNWEGAKHGACHVRNGKWKCFCYFNC [L6-21] (Defensin like) | +++ (+++ indicating >10-fold improvement) | +++ (+++ indicating >10-fold improvement) | + (+ indicating 1- to 5-fold improvement compared to DmAMP1) | – | +++ (+++ indicates a >10-fold improvement) | – | – | –
10 | NLCERASKTWTGNCGNTKHCDTQCKNWEGAKHGACHKRNGKWKCFCYFNC (Defensin like) [L3-42] | +++ (+++ indicating >10-fold improvement) | ++ (++ indicating >5- to 10-fold improvement) | + (+ indicating 1- to 5-fold improvement compared to DmAMP1) | – | +++ (+++ indicates a >10-fold improvement) | – | – | –
11 | NLCERASKTWTGNCGNTKHCDTQCKSWEGAKHGACHVRNGKHKCFCYFNC (Defensin like) [L6-71] | +++ (+++ indicating >10-fold improvement) | + (+ indicating 1- to 5-fold improvement compared to DmAMP1) | + (+ indicating 1- to 5-fold improvement compared to DmAMP1) | – | +++ (+++ indicates a >10-fold improvement) | – | – | –
12 | DGVKLCEKPSQTWTGNCGNTKHCDTQCRNWEGAKHGACHKRNGKWKCFCYFNC (Defensin like) [L7-427] | ++ (++ indicating >5- to 10-fold improvement) | + (+ indicating 1- to 5-fold improvement compared to DmAMP1) | + (+ indicating 1- to 5-fold improvement compared to DmAMP1) | ++ (++ indicates a >5- to 10-fold improvement) | – | – | – | –
13 | DGVKLCERASKTWSGHCGNTKHCDNQCRSWEGAKHGACHVRNGKWKCFCYFNC (Defensin like) [L7-452] | ++ (++ indicating >5- to 10-fold improvement) | + (+ indicating 1- to 5-fold improvement compared to DmAMP1) | + (+ indicating 1- to 5-fold improvement compared to DmAMP1) | +++ (+++ indicates a >10-fold improvement) | – | – | – | –
14 | NLCERASKTWTGNCGNTKHCDNQCKSWEGAKHGACHVRNGKHKCFCYFNC (Defensin like) [L9-33] | +++ (+++ indicating >10-fold improvement) | +++ (+++ indicating >10-fold improvement) | ++ (++ indicating >5- to 10-fold improvement) | – | ++ (++ indicates a >5- to 10-fold improvement) | – | – | –
15 | DGVKLCEKPSKTWSGHCGNTKHCDTQCRNWEKAKHGACHVRNGKWKCFCYFNC (Defensin like) [L7-392] | + (+ indicating 1- to 5-fold improvement compared to DmAMP1) | + (+ indicating 1- to 5-fold improvement compared to DmAMP1) | + (+ indicating 1- to 5-fold improvement compared to DmAMP1) | +++ (+++ indicates a >10-fold improvement) | – | – | – | –
16 | DGVKLCEKASQTWSGHCGNTKHCDNQCKNWEGAKHGACHKRSGKWKCFCYFNC (Defensin like) [L7-422] | – | – | – | – | – | + (key: + indicating 1- to 5-fold improvement compared to DmAMP1; ++ indicating >5- to 10-fold improvement; +++ indicating >10-fold improvement) | + (key: + indicating 1- to 5-fold improvement compared to DmAMP1; ++ indicating >5- to 10-fold improvement; +++ indicating >10-fold improvement) | + (key: + indicating 1- to 5-fold improvement compared to DmAMP1; ++ indicating >5- to 10-fold improvement; +++ indicating >10-fold improvement)
17 | NLCERASKTWTGNCGNTKHCDNQCKSWEGAAHGACHVRSGKHKCFCYFNC (Defensin like) [L6-39] | – | – | – | – | – | +++ (key: + indicating 1- to 5-fold improvement compared to DmAMP1; ++ indicating >5- to 10-fold improvement; +++ indicating >10-fold improvement) | ++ (key: + indicating 1- to 5-fold improvement compared to DmAMP1; ++ indicating >5- to 10-fold improvement; +++ indicating >10-fold improvement) | + (key: + indicating 1- to 5-fold improvement compared to DmAMP1; ++ indicating >5- to 10-fold improvement; +++ indicating >10-fold improvement)
18 | NLCERASKTWTGNCGNTKHCDNQCKSWEGAAHGACHVRNGKHKCFCYFNC (Defensin like) [L5-24] | – | – | – | – | – | +++ (key: + indicating 1- to 5-fold improvement compared to DmAMP1; ++ indicating >5- to 10-fold improvement; +++ indicating >10-fold improvement) | ++ (key: + indicating 1- to 5-fold improvement compared to DmAMP1; ++ indicating >5- to 10-fold improvement; +++ indicating >10-fold improvement) | + (key: + indicating 1- to 5-fold improvement compared to DmAMP1; ++ indicating >5- to 10-fold improvement; +++ indicating >10-fold improvement)

Reference: US7785828B1 (priority 2003, dated 2010)
